Measured values taken from PubChem BioAssay (NCI).
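A five-concentration, 48-hour dose response in 96-well plates underlies each endpoint, interpolated linearly between surrounding concentrations. Definition used: TGI = concentration required for complete inhibition of growth.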

How the values were obtained:
Assay in all cases: growth of human tumour cells (NCI), 48 h
EKVX NSCLC = tested on: EKVX NSCLC
RXF 393 renal = tested on: RXF 393 renal
ACHN renal = tested on: ACHN renal
SK-MEL-2 melanoma = tested on: SK-MEL-2 melanoma
MCF7 breast = tested on: MCF7 breast
SK-MEL-28 melanoma = tested on: SK-MEL-28 melanoma
OVCAR-8 ovarian = tested on: OVCAR-8 ovarian
NCI/ADR-RES ovarian = tested on: NCI/ADR-RES ovarian
HS 578T breast = tested on: HS 578T breast
NCI-H522 lung = tested on: NCI-H522 lung
HOP-62 NSCLC = tested on: HOP-62 NSCLC
NCI-H23 lung = tested on: NCI-H23 lung
K-562 leukemia = tested on: K-562 leukemia
SF-539 CNS = tested on: SF-539 CNS
COLO 205 colon = tested on: COLO 205 colon
OVCAR-4 ovarian = tested on: OVCAR-4 ovarian
SR leukemia = tested on: SR leukemia
MALME-3M melanoma = tested on: MALME-3M melanoma
M14 melanoma = tested on: M14 melanoma
SNB-19 CNS = tested on: SNB-19 CNS
UACC-62 melanoma = tested on: UACC-62 melanoma
A498 renal = tested on: A498 renal
MDA-N = tested on: MDA-N
KM12 colon = tested on: KM12 colon
HOP-92 NSCLC = tested on: HOP-92 NSCLC
NCI-H226 lung = tested on: NCI-H226 lung
UO-31 renal = tested on: UO-31 renal
OVCAR-5 ovarian = tested on: OVCAR-5 ovarian
BT-549 breast = tested on: BT-549 breast
RPMI-8226 leukemia = tested on: RPMI-8226 leukemia
U251 CNS = tested on: U251 CNS
IGROV1 ovarian = tested on: IGROV1 ovarian
A549 NSCLC = tested on: A549 NSCLC
MDA-MB-435 = tested on: MDA-MB-435
TK-10 renal = tested on: TK-10 renal
DU-145 prostate = tested on: DU-145 prostate
SN12C renal = tested on: SN12C renal
HT29 colon = tested on: HT29 colon
MOLT-4 leukemia = tested on: MOLT-4 leukemia
MDA-MB-231 breast = tested on: MDA-MB-231 breast
HCT-116 colon = tested on: HCT-116 colon
NCI-H460 lung = tested on: NCI-H460 lung
PC-3 prostate = tested on: PC-3 prostate
UACC-257 melanoma = tested on: UACC-257 melanoma
HL-60(TB) leukemia = tested on: HL-60(TB) leukemia
CCRF-CEM leukemia = tested on: CCRF-CEM leukemia
LOX IMVI melanoma = tested on: LOX IMVI melanoma
SW-620 colon = tested on: SW-620 colon
SF-295 CNS = tested on: SF-295 CNS
786-0 renal = tested on: 786-0 renal
HCT-15 colon = tested on: HCT-15 colon
SK-OV-3 ovarian = tested on: SK-OV-3 ovarian
CAKI-1 renal = tested on: CAKI-1 renal
T-47D breast = tested on: T-47D breast
SF-268 CNS = tested on: SF-268 CNS
SNB-75 CNS = tested on: SNB-75 CNS

Q: Which TGI (EKVX NSCLC) does the source give for `O=C(COc1ccc(OCC(=O)NNC2=NC(c3cc(F)c(Cl)cc3Cl)CS2)c(Cl)c1)NNC1=NC(c2cc(F)c(Cl)cc2Cl)CS1` (configuration not stated) here?
A: 77.3 µM

Q: What about the TGI (RXF 393 renal) of the same compound?
A: 60.9 µM

Q: And the TGI (ACHN renal)?
A: > 100 µM

Q: What about the TGI (SK-MEL-2 melanoma) of the same compound?
A: > 100 µM

Q: And the TGI (MCF7 breast)?
A: 34.6 µM

Q: And the TGI (SK-MEL-28 melanoma)?
A: 86.9 µM

Q: What about the TGI (OVCAR-8 ovarian) of the same compound?
A: 64.5 µM

Q: And the TGI (NCI/ADR-RES ovarian)?
A: > 100 µM

Q: And the TGI (HS 578T breast)?
A: 48.7 µM

Q: And the TGI (NCI-H522 lung)?
A: 34.5 µM

Q: And the TGI (HOP-62 NSCLC)?
A: > 100 µM

Q: What about the TGI (NCI-H23 lung) of the same compound?
A: 50.1 µM

Q: What about the TGI (K-562 leukemia) of the same compound?
A: > 100 µM

Q: And the TGI (SF-539 CNS)?
A: 64.5 µM

Q: And the TGI (COLO 205 colon)?
A: > 100 µM

Q: And the TGI (OVCAR-4 ovarian)?
A: 40.4 µM

Q: What about the TGI (SR leukemia) of the same compound?
A: > 100 µM

Q: What about the TGI (MALME-3M melanoma) of the same compound?
A: > 100 µM

Q: What about the TGI (M14 melanoma) of the same compound?
A: > 100 µM

Q: And the TGI (SNB-19 CNS)?
A: > 100 µM

Q: And the TGI (UACC-62 melanoma)?
A: 40.4 µM

Q: What about the TGI (A498 renal) of the same compound?
A: 56.2 µM

Q: What about the TGI (MDA-N) of the same compound?
A: 92.9 µM

Q: What about the TGI (KM12 colon) of the same compound?
A: > 100 µM

Q: What about the TGI (HOP-92 NSCLC) of the same compound?
A: > 100 µM

Q: And the TGI (NCI-H226 lung)?
A: 46 µM

Q: And the TGI (UO-31 renal)?
A: > 100 µM

Q: What about the TGI (OVCAR-5 ovarian) of the same compound?
A: > 100 µM

Q: What about the TGI (BT-549 breast) of the same compound?
A: 66.1 µM

Q: What about the TGI (RPMI-8226 leukemia) of the same compound?
A: > 100 µM

Q: What about the TGI (U251 CNS) of the same compound?
A: 28.5 µM

Q: What about the TGI (IGROV1 ovarian) of the same compound?
A: > 100 µM

Q: What about the TGI (A549 NSCLC) of the same compound?
A: 28.6 µM

Q: What about the TGI (MDA-MB-435) of the same compound?
A: 44.6 µM

Q: What about the TGI (TK-10 renal) of the same compound?
A: > 100 µM

Q: What about the TGI (DU-145 prostate) of the same compound?
A: 59.8 µM

Q: And the TGI (SN12C renal)?
A: 43.8 µM

Q: And the TGI (HT29 colon)?
A: 59.3 µM

Q: What about the TGI (MOLT-4 leukemia) of the same compound?
A: > 100 µM

Q: What about the TGI (MDA-MB-231 breast) of the same compound?
A: 54.5 µM

Q: And the TGI (HCT-116 colon)?
A: > 100 µM

Q: What about the TGI (NCI-H460 lung) of the same compound?
A: > 100 µM

Q: What about the TGI (PC-3 prostate) of the same compound?
A: > 100 µM

Q: What about the TGI (UACC-257 melanoma) of the same compound?
A: > 100 µM

Q: And the TGI (HL-60(TB) leukemia)?
A: > 100 µM

Q: And the TGI (CCRF-CEM leukemia)?
A: > 100 µM

Q: And the TGI (LOX IMVI melanoma)?
A: 5.15 µM

Q: What about the TGI (SW-620 colon) of the same compound?
A: > 100 µM

Q: What about the TGI (SF-295 CNS) of the same compound?
A: 71.6 µM

Q: And the TGI (786-0 renal)?
A: > 100 µM

Q: What about the TGI (HCT-15 colon) of the same compound?
A: 36 µM

Q: What about the TGI (SK-OV-3 ovarian) of the same compound?
A: > 100 µM

Q: Which TGI (EKVX NSCLC) does the source give for `COc1cc2cc(C(=O)N3CC(CCl)c4c3cc(NCCN)c3ccccc43)[nH]c2c(OC)c1OC` (configuration not stated) here?
A: 0.0789 µM

Q: And the TGI (ACHN renal)?
A: < 0.01 µM

Q: What about the TGI (SK-MEL-2 melanoma) of the same compound?
A: < 0.01 µM

Q: And the TGI (MCF7 breast)?
A: < 0.01 µM

Q: And the TGI (SK-MEL-28 melanoma)?
A: 0.564 µM

Q: And the TGI (NCI/ADR-RES ovarian)?
A: 0.0799 µM

Q: And the TGI (NCI-H522 lung)?
A: < 0.01 µM

Q: And the TGI (HOP-62 NSCLC)?
A: < 0.0221 µM

Q: And the TGI (NCI-H23 lung)?
A: < 0.01 µM

Q: What about the TGI (COLO 205 colon) of the same compound?
A: < 0.01 µM

Q: What about the TGI (CAKI-1 renal) of the same compound?
A: < 0.01 µM

Q: And the TGI (OVCAR-4 ovarian)?
A: 0.054 µM

Q: What about the TGI (SR leukemia) of the same compound?
A: > 100 µM

Q: And the TGI (MALME-3M melanoma)?
A: < 0.0134 µM

Q: What about the TGI (M14 melanoma) of the same compound?
A: < 0.0121 µM

Q: What about the TGI (UACC-62 melanoma) of the same compound?
A: < 0.01 µM

Q: And the TGI (A498 renal)?
A: < 0.0136 µM

Q: What about the TGI (MDA-N) of the same compound?
A: < 0.0203 µM

Q: And the TGI (KM12 colon)?
A: < 0.01 µM

Q: And the TGI (HOP-92 NSCLC)?
A: < 0.01 µM

Q: And the TGI (UO-31 renal)?
A: < 0.0132 µM

Q: And the TGI (T-47D breast)?
A: 1.07 µM

Q: And the TGI (BT-549 breast)?
A: 0.0817 µM

Q: What about the TGI (U251 CNS) of the same compound?
A: < 0.01 µM

Q: And the TGI (MDA-MB-435)?
A: < 0.01 µM

Q: And the TGI (TK-10 renal)?
A: < 0.0181 µM

Q: What about the TGI (DU-145 prostate) of the same compound?
A: 1.07 µM

Q: What about the TGI (SN12C renal) of the same compound?
A: < 0.017 µM

Q: And the TGI (PC-3 prostate)?
A: < 0.0328 µM

Q: What about the TGI (SF-268 CNS) of the same compound?
A: 0.484 µM

Q: What about the TGI (SNB-75 CNS) of the same compound?
A: 0.0479 µM

Q: And the TGI (SW-620 colon)?
A: 0.311 µM

Q: What about the TGI (SF-295 CNS) of the same compound?
A: < 0.0468 µM

Q: What about the TGI (HCT-15 colon) of the same compound?
A: 0.0536 µM

Q: What about the TGI (SK-OV-3 ovarian) of the same compound?
A: 1.42 µM
